Measurements as given in paper doi:10.1101/2021.04.08.439011v1 (biorxiv, 2021).

What was measured:
Conditions in all cases: 0.1 µM; binder
[1] = biological target: RSK4(Kin.Dom.1-N-terminal) (Homo sapiens, UniProt Q9UK32)
[2] = biological target: CASK (Homo sapiens, UniProt O14936)
[3] = biological target: MAP3K4 (Homo sapiens, UniProt Q9Y6R4)
[4] = biological target: SGK3 (Homo sapiens, UniProt Q96BR1)
[5] = biological target: CAMK2A (Homo sapiens, UniProt Q9UQM7)
Chain of CAMK2A (Q9UQM7 whole entry): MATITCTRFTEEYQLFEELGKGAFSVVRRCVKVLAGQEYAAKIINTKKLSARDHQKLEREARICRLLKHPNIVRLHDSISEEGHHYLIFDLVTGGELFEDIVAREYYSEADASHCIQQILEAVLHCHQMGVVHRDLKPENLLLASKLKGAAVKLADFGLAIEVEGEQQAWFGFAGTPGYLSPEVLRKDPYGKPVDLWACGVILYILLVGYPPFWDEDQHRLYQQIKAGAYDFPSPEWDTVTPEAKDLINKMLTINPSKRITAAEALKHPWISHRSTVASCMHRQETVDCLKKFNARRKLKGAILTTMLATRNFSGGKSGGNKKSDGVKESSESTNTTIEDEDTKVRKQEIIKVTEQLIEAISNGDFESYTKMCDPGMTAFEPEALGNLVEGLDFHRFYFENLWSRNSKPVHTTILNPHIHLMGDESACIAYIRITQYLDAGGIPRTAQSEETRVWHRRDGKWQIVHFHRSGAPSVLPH

Chain of CASK (O14936 whole entry): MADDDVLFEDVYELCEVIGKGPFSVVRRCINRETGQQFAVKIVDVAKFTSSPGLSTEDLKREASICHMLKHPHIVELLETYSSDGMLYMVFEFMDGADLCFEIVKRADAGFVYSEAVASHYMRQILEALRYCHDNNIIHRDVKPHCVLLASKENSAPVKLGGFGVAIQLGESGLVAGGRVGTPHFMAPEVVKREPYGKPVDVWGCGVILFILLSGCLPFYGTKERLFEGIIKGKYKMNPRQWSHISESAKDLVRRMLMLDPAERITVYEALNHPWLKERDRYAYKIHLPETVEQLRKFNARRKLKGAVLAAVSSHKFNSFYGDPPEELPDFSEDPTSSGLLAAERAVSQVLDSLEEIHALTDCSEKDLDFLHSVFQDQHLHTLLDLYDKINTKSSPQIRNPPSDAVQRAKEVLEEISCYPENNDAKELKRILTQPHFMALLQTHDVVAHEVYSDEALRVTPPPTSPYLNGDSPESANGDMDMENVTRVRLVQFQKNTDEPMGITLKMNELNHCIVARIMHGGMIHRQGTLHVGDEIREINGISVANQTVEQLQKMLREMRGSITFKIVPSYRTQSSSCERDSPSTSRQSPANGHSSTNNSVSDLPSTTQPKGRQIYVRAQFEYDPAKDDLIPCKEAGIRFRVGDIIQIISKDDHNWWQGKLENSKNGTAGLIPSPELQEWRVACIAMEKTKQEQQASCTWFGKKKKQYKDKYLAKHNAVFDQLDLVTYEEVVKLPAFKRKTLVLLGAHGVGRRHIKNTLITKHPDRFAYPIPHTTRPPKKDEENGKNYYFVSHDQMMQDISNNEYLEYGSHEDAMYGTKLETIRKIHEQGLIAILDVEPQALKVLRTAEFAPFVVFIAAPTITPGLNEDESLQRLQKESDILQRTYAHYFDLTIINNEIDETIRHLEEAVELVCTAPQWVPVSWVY
Chain of RSK4(Kin.Dom.1-N-terminal) (Q9UK32 whole entry): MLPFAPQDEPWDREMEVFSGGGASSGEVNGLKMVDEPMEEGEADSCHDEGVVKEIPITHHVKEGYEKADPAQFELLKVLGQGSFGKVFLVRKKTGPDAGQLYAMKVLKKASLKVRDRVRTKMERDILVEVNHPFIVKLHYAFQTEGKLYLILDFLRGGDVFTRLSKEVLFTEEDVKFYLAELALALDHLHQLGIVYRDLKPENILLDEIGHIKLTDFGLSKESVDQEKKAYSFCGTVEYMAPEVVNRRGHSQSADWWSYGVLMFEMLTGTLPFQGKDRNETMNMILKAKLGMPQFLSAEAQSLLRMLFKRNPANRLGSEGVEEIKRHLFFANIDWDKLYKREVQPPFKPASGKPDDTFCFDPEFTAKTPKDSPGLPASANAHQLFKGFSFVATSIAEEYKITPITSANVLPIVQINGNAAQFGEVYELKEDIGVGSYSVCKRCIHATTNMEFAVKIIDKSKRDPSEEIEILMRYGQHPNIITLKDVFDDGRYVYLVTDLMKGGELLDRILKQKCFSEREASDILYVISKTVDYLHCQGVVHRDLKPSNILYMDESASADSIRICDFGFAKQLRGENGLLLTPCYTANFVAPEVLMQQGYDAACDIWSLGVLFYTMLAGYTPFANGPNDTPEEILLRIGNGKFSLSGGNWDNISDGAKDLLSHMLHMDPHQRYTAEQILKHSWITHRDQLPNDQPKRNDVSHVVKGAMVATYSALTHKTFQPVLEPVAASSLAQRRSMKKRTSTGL
Chain of MAP3K4 (Q9Y6R4 whole entry): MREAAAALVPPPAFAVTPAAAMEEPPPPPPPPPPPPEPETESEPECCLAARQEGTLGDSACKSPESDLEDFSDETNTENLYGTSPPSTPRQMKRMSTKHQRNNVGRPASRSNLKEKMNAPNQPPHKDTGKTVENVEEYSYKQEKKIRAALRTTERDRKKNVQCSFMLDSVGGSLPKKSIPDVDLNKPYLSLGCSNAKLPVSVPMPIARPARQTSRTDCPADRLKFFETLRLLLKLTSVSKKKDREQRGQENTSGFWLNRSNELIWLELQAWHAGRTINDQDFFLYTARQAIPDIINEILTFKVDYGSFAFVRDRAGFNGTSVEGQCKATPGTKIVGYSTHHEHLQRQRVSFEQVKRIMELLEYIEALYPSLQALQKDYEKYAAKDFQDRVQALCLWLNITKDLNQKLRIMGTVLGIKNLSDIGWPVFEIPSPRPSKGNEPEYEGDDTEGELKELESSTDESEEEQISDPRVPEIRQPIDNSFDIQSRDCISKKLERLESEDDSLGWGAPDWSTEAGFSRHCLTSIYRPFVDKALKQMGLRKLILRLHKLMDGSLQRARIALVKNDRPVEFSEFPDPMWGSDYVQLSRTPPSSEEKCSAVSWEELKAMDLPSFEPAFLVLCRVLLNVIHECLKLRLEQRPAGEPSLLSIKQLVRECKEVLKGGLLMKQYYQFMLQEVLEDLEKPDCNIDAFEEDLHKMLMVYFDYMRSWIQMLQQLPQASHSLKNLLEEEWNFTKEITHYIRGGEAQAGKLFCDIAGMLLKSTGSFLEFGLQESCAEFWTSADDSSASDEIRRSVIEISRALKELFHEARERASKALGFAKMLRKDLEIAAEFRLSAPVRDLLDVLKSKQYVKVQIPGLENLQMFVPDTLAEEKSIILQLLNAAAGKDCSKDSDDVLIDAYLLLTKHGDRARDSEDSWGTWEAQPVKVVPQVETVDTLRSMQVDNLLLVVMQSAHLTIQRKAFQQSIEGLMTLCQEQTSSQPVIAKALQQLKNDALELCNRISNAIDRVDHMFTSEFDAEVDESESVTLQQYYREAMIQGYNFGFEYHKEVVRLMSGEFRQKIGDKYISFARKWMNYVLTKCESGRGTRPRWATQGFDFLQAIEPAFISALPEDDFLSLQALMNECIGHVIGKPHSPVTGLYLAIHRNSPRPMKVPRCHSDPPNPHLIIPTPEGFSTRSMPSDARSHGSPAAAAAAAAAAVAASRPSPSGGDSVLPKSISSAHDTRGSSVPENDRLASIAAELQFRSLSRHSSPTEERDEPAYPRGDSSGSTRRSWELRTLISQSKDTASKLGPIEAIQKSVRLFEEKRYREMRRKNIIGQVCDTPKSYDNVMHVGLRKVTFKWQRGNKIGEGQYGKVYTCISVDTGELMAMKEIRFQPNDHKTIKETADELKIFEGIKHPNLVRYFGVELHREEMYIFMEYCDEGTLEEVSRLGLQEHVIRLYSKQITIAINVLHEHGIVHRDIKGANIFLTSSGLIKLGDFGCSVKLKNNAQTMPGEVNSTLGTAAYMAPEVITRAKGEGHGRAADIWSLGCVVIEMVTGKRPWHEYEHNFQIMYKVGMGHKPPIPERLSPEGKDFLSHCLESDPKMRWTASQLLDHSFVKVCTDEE
Chain of SGK3 (Q96BR1 whole entry): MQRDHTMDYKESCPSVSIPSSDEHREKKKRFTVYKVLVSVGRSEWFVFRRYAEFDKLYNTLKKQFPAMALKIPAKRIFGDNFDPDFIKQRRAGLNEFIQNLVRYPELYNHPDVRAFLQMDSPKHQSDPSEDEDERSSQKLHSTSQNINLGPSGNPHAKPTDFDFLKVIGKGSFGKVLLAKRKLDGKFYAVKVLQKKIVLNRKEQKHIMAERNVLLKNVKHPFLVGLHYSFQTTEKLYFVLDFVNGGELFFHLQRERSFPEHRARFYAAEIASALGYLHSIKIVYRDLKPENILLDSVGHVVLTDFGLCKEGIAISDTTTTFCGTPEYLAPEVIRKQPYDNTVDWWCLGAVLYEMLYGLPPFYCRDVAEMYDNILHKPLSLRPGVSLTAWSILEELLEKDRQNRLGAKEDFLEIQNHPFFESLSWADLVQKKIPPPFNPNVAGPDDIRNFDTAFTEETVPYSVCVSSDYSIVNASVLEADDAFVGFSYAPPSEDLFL

With CNc1ncc2cc(-c3ccc(-c4cccc(C)n4)cc3Cl)c(=O)n(C[C@H]3OC[C@H](N)CO3)c2n1 [compound 6, G-5555] the “Percent Control” value [1] was 97%, the “Percent Control” value [2] was 96% and the “Percent Control” value [3] was 84%. The “Percent Control” value [4] was 93% and the “Percent Control” value [5] was 79%.
